Results on 9 compounds are retold here after patent US9738660B2, “Selective inhibitors for protein kinases and pharmaceutical composition and use thereof” (National Chiao Tung University, priority 2014, dated 2017).

Common to all, as to assay: Kinase Profiler, residual kinase activity
What all share (format): biochemical
Common to all, as to details: read-out: percentage of the remaining kinase activity

For one assay, the target named is T1, GSG2 (Homo sapiens, UniProt Q8TF76).
T1 sequence (Q8TF76 1-798): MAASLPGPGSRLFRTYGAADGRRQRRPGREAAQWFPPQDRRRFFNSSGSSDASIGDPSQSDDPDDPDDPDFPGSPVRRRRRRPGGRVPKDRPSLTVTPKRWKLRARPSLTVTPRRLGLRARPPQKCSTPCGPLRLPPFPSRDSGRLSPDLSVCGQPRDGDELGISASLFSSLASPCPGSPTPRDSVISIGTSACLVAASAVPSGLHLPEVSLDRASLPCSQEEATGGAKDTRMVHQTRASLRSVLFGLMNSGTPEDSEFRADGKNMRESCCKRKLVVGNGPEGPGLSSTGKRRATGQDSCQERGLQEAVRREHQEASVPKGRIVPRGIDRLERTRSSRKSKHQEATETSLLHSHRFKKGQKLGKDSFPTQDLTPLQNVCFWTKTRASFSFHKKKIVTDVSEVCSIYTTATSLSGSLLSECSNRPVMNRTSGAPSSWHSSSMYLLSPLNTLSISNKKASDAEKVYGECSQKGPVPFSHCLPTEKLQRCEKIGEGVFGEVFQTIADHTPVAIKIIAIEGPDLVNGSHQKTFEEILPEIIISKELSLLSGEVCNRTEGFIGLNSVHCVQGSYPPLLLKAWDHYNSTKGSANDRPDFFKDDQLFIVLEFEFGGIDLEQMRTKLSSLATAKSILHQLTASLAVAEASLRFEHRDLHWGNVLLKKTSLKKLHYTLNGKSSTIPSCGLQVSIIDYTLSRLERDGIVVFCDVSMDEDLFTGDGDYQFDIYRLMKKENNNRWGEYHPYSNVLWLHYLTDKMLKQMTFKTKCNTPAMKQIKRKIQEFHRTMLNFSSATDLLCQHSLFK
Summed up: (§1)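 Inhibitors were sent to an external profiling provider and assayed against 40 kinases, and the remaining activity of each enzyme was recorded.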

The next assay concerns the target T2, AXL (Homo sapiens, UniProt P30530).
T2 construct: purchased Research Biology Corp. (http://www.reactionbiology.com)
T2 sequence (P30530 26-894): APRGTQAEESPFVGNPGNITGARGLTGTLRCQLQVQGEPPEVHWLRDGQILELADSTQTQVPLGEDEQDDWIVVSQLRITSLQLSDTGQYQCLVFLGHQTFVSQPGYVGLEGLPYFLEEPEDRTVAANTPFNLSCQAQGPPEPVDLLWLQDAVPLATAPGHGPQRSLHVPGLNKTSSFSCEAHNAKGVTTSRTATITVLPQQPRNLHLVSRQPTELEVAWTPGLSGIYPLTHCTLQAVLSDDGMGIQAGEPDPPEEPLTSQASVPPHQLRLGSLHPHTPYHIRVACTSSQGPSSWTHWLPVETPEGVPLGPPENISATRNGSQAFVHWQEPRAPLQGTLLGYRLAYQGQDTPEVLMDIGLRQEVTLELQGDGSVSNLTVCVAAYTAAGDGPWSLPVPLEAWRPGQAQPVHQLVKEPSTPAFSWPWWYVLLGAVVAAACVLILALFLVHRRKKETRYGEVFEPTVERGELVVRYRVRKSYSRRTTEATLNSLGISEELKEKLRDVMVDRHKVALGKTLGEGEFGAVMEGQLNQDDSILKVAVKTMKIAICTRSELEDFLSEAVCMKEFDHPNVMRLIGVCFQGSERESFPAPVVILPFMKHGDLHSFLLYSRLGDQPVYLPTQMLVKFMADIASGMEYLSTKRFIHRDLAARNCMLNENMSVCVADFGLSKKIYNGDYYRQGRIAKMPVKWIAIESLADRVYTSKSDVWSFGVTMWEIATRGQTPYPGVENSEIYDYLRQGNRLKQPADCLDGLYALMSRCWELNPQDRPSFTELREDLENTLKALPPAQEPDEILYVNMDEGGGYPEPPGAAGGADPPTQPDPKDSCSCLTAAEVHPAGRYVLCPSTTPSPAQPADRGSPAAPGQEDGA
Summed up: as §1

In another assay the target is PIM1 (Homo sapiens, UniProt P11309). Summed up:
as §1

A further assay deals with AKT1 (Homo sapiens, UniProt P31749). In outline:
as §1

The target in a further assay is T3, OXSR1 (Homo sapiens, UniProt O95747).
T3 construct: purchased Research Biology Corp. (http://www.reactionbiology.com)
T3 sequence (O95747 whole entry): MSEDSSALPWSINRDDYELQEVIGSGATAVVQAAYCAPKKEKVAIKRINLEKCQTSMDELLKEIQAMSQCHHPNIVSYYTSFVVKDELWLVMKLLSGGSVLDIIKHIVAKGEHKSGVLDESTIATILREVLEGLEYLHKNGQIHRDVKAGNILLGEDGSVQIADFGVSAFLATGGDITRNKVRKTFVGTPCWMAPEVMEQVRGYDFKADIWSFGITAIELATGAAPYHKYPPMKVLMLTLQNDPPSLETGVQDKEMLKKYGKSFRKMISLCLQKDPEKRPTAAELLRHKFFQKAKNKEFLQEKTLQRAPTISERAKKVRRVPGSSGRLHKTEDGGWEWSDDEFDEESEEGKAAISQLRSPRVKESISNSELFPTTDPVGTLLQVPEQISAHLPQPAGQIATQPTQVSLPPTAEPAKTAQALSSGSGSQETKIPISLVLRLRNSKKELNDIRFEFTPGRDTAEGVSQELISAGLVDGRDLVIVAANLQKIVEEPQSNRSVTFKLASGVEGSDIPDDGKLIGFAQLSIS
Summed up: as §1

The target in another assay is T4, IRAK4 (Homo sapiens, UniProt Q9NWZ3).
T4 sequence (Q9NWZ3 1-460): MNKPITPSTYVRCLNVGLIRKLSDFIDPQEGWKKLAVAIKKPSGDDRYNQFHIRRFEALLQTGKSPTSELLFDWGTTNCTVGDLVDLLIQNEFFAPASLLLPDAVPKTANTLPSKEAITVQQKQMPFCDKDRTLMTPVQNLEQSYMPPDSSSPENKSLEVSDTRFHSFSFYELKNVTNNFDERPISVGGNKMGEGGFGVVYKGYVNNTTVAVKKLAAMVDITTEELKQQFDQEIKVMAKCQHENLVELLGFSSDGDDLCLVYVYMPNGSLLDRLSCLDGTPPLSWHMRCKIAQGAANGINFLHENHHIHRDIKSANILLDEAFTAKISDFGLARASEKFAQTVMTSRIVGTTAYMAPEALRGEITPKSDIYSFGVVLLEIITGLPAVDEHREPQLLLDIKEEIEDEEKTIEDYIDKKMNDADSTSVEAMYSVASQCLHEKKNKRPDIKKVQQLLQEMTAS
Summed up: as §1

A further assay has as its target BTK (Homo sapiens, UniProt Q06187). In outline:
as §1

For a further assay, the target named is GSK3B (Homo sapiens, UniProt P49841). Summed up:
as §1

Like-named read-outs stand apart in the source and are kept apart here.

Sequence of AKT1 (P31749 whole entry): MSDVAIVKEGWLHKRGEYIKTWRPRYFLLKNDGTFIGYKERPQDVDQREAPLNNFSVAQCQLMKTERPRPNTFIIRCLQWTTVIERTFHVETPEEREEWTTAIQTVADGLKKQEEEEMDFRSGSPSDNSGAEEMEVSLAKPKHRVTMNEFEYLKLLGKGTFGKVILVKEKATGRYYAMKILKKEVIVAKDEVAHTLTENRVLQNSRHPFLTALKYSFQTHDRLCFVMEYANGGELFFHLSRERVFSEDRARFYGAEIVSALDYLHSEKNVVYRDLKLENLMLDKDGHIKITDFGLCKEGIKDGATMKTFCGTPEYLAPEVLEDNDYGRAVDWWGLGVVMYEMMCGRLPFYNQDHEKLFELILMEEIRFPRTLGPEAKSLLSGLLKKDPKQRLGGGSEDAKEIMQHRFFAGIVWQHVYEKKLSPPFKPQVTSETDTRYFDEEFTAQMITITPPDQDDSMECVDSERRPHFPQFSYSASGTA
Sequence of GSK3B (P49841 whole entry): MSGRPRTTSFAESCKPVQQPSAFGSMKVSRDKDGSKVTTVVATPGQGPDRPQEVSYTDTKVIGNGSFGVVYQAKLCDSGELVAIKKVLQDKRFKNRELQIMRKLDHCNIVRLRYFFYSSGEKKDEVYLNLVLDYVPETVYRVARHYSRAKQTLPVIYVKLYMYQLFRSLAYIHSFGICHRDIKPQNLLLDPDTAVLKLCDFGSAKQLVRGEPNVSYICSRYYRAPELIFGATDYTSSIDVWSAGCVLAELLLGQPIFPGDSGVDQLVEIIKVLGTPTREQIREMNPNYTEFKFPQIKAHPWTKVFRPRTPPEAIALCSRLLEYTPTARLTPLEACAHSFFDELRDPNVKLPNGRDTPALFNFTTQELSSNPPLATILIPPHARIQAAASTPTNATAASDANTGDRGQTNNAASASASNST
Sequence of PIM1 (P11309 whole entry): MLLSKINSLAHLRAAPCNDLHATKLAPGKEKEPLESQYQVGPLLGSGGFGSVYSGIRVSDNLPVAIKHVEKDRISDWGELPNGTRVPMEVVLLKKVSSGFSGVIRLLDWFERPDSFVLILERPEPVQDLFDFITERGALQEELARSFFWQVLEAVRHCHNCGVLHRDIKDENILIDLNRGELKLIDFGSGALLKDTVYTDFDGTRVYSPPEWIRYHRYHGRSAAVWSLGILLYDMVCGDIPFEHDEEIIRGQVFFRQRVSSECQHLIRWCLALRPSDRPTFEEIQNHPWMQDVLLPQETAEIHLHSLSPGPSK
Sequence of BTK (Q06187 whole entry): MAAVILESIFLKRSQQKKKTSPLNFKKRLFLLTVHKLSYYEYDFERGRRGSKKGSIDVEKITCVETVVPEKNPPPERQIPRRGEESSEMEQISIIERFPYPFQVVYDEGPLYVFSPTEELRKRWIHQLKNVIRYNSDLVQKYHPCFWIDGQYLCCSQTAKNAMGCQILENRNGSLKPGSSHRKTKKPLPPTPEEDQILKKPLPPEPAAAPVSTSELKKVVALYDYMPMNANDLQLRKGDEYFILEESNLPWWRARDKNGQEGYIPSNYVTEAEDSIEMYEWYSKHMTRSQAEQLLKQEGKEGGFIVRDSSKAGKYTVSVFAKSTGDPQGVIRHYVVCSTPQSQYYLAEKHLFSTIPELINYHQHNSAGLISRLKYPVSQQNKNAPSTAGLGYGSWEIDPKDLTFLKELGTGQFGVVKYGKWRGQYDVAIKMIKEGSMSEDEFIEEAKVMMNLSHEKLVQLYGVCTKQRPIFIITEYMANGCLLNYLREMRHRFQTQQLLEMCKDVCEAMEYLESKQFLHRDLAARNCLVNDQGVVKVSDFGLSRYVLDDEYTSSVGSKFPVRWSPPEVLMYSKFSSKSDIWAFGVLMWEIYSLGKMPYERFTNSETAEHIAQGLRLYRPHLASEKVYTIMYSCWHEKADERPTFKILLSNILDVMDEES

One may read the remaining activity as the signal under treatment as a percentage of the control signal. For `COC1C(N(C)C(=O)C(N)Cc2c[nH]cn2)CC2OC1(C)n1c3ccccc3c3c4c(c5c6ccccc6n2c5c31)C(=O)NC4` (stereo not shown) [Compound 1], the remaining activity at 0.5 µM on GSG2 (GSG2, inhibitor at 500 nM) stood at 69.9%; on AXL (AXL, inhibitor at 500 nM) it was 35.4%; on PIM1 (PIM1, inhibitor at 500 nM) it was 2.4%; on AKT1 (AKT1, inhibitor at 500 nM), 19.6%; at OXSR1 (OXSR1, inhibitor at 500 nM), 106%; on IRAK4 (IRAK4, inhibitor at 500 nM), 33.4%. Besides, the remaining activity at 0.5 µM amounted to 13.9% on BTK (BTK, inhibitor at 500 nM) and 17.9% on GSK3B (GSK3B, inhibitor at 500 nM).
Take `COC1C(N(C)C(=O)C(N)Cc2cn(C(=O)OC(C)(C)C)c3ccccc23)CC2OC1(C)n1c3ccccc3c3c4c(c5c6ccccc6n2c5c31)C(=O)NC4` (stereo not shown) [Compound 2]: the remaining activity at 0.5 µM on GSG2 (GSG2, inhibitor at 500 nM) came out at 110%; on AXL (AXL, inhibitor at 500 nM), 100%; on PIM1 (PIM1, inhibitor at 500 nM) it was 88.9%; at AKT1 (AKT1, inhibitor at 500 nM) it was 97.6%; on OXSR1 (OXSR1, inhibitor at 500 nM), 116%; on IRAK4 (IRAK4, inhibitor at 500 nM), 101%. In addition, the remaining activity at 0.5 µM at BTK (BTK, inhibitor at 500 nM) is 90.6%; on GSK3B (GSK3B, inhibitor at 500 nM) it was 94.2%.
As to `COC1C(N(C)C(=O)C(N)Cc2ccc(OC(C)(C)C)cc2)CC2OC1(C)n1c3ccccc3c3c4c(c5c6ccccc6n2c5c31)C(=O)NC4` (stereo not shown) [Compound 4], the remaining activity at 0.5 µM on GSG2 (GSG2, inhibitor at 500 nM) was 102%; at AXL (AXL, inhibitor at 500 nM) it was 77.2%; on PIM1 (PIM1, inhibitor at 500 nM) it was 44.2%; on AKT1 (AKT1, inhibitor at 500 nM), 79.6%; at OXSR1 (OXSR1, inhibitor at 500 nM), 110%; on IRAK4 (IRAK4, inhibitor at 500 nM) it was 87.4%. Besides, the remaining activity at 0.5 µM on BTK (BTK, inhibitor at 500 nM) came out at 65.4%; on GSK3B (GSK3B, inhibitor at 500 nM), 86.6%.
As to `COC1C(N(C)C(=O)C(N)Cc2ccc(O)cc2)CC2OC1(C)n1c3ccccc3c3c4c(c5c6ccccc6n2c5c31)C(=O)NC4` (stereo not shown) [Compound 5], the remaining activity at 0.5 µM turned out to be 89.5% on GSG2 (GSG2, inhibitor at 500 nM); 60.3% at AXL (AXL, inhibitor at 500 nM); 3% at PIM1 (PIM1, inhibitor at 500 nM); 66.8% at AKT1 (AKT1, inhibitor at 500 nM); 109% on OXSR1 (OXSR1, inhibitor at 500 nM); 85.9% on IRAK4 (IRAK4, inhibitor at 500 nM). Besides, the remaining activity at 0.5 µM on BTK (BTK, inhibitor at 500 nM) amounted to 37.8%; at GSK3B (GSK3B, inhibitor at 500 nM), 29.4%.
Take `COC1C(N(C)C(=O)C(N)CCC(=O)OC(C)(C)C)CC2OC1(C)n1c3ccccc3c3c4c(c5c6ccccc6n2c5c31)C(=O)NC4` (stereo not shown) [Compound 6]: the remaining activity at 0.5 µM came out at 88% on GSG2 (GSG2, inhibitor at 500 nM); 60.9% on AXL (AXL, inhibitor at 500 nM); 43% on PIM1 (PIM1, inhibitor at 500 nM); 67.5% at AKT1 (AKT1, inhibitor at 500 nM); 111% at OXSR1 (OXSR1, inhibitor at 500 nM); 63.5% at IRAK4 (IRAK4, inhibitor at 500 nM). Further, the remaining activity at 0.5 µM at BTK (BTK, inhibitor at 500 nM) worked out at 43.6%; at GSK3B (GSK3B, inhibitor at 500 nM), 79.7%.
On to `COC1C(N(C)C(=O)C(N)CCC(=O)O)CC2OC1(C)n1c3ccccc3c3c4c(c5c6ccccc6n2c5c31)C(=O)NC4` (stereo not shown) [Compound 7], for which the remaining activity at 0.5 µM on GSG2 (GSG2, inhibitor at 500 nM) came to 69.9%; on AXL (AXL, inhibitor at 500 nM), 26.8%; on PIM1 (PIM1, inhibitor at 500 nM), 2.5%; on AKT1 (AKT1, inhibitor at 500 nM) it was 31.5%; on OXSR1 (OXSR1, inhibitor at 500 nM) it was 100%; on IRAK4 (IRAK4, inhibitor at 500 nM), 46.8%. The remaining activity at 0.5 µM at BTK (BTK, inhibitor at 500 nM) is 11.9%; at GSK3B (GSK3B, inhibitor at 500 nM), 9.6%.
`COC1C(N(C)CCOc2cccc([N+](=O)[O-])c2)CC2OC1(C)n1c3ccccc3c3c4c(c5c6ccccc6n2c5c31)C(=O)NC4` (stereo not shown) [Compound 8]: the remaining activity at 0.5 µM on GSG2 was 89.8%; at AXL, 46.3%; at PIM1 it was 24.6%; on AKT1 it was 52.3%; at OXSR1, 102%; on IRAK4, 27.9%. For the same compound, the remaining activity at 0.5 µM at BTK worked out at 53.9%; on GSK3B it was 51.8%.
With `COC1C(N(C)Cc2ccc(-c3ccccc3)cc2)CC2OC1(C)n1c3ccccc3c3c4c(c5c6ccccc6n2c5c31)C(=O)NC4` (stereo not shown) [Compound 9], the remaining activity at 0.5 µM on GSG2 (GSG2, inhibitor at 500 nM) was 87.8%; at AXL (AXL, inhibitor at 500 nM), 37.6%; on PIM1 (PIM1, inhibitor at 500 nM), 21.8%; at AKT1 (AKT1, inhibitor at 500 nM), 46.9%; on OXSR1 (OXSR1, inhibitor at 500 nM), 94.7%; on IRAK4 (IRAK4, inhibitor at 500 nM) it was 26.6%. In addition, the remaining activity at 0.5 µM on BTK (BTK, inhibitor at 500 nM) was found to be 55.8%; on GSK3B (GSK3B, inhibitor at 500 nM), 46.6%.
In the case of `CN[C@@H]1C[C@H]2O[C@@](C)([C@@H]1OC)n1c3ccccc3c3c4c(c5c6ccccc6n2c5c31)C(=O)NC4` [STU, staurosporine, reference compound], the remaining activity at 0.5 µM on GSG2 (GSG2, inhibitor at 500 nM) was determined as 9%; at AXL, 8.8%; on PIM1, 0.6%; on AKT1 it was 3.8%; at OXSR1 it was 15.8%; at IRAK4, 1.6%.
